Where two headings read alike, the source gives them in different places.
Tests used:
[1] = system: Ca9-22 squamous cell carcinoma cells; assay: MTT cytotoxicity against Ca9-22 squamous cell carcinoma; assay type: cell-based, human; details: for CC50: 48 h, MTT, read-out: Ca9-22 CC50; for Ca9-22 SI: average CC50 HGF/HPLF/HPC divided by CC50 Ca9-22
Procedure: (§1) The method for evaluating 2a–f and 3a–e against human oral squamous cell carcinoma (OSCC) cell lines (Ca9-22, HSC-2, HSC-3, HSC-4) and human non-malignant oral cells [human gingival fibroblast (HGF), human periodontal ligament fibroblast (HPLF), and human pulp cell (HPC)] have been reported previously, except the length of time of this bioassay was extended from 24 h to 48 h. In brief, different quantities of the compounds were incubated with the cells in Dulbecco’s modified eagle medium (DMEM), which was supplemented with 10% FBS and antibiotics. The cell viability was determined by the 3-(4,5-dimethylthiazol-2-yl)-2,5-diphenyl-2H-tetrazolium bromide (MTT) method as summarized previously (Figure 4).

[2] = system: HSC-2 squamous cell carcinoma cells; assay: MTT cytotoxicity against HSC-2 squamous cell carcinoma; assay type: cell-based, human; details: for CC50: 48 h, MTT, read-out: HSC-2 CC50; for HSC-2 SI: average CC50 HGF/HPLF/HPC divided by CC50 HSC-2
Procedure: as §1

[3] = system: HSC-3 squamous cell carcinoma cells; assay: MTT cytotoxicity against HSC-3 squamous cell carcinoma; assay type: cell-based, human; details: for CC50: 48 h, MTT, read-out: HSC-3 CC50; for HSC-3 SI: average CC50 HGF/HPLF/HPC divided by CC50 HSC-3
Procedure: as §1

[4] = system: HSC-4 squamous cell carcinoma cells; assay: MTT cytotoxicity against HSC-4 squamous cell carcinoma; assay type: cell-based, human; details: for CC50: 48 h, MTT, read-out: HSC-4 CC50; for HSC-4 SI: average CC50 HGF/HPLF/HPC divided by CC50 HSC-4
Procedure: as §1

[5] = system: Ca9-22, HSC-2, HSC-3, and HSC-4 squamous cell carcinoma cell lines; assay: Average over Ca9-22, HSC-2, HSC-3 and HSC-4 OSCC cell lines; assay type: cell-based, human; details: for Average SI: average of SI for four OSCC cell lines; for CC50: average of four OSCC cell lines, read-out: Average CC50
Procedure: as §1

[6] = system: HGF non-malignant cells; assay: MTT cytotoxicity against human gingival fibroblast (HGF); assay type: cell-based; details: non-malignant oral cells, 48 h
Procedure: as §1

[7] = system: HPLF non-malignant cells; assay: MTT cytotoxicity against human periodontal ligament fibroblast (HPLF); assay type: cell-based; details: non-malignant oral cells, 48 h
Procedure: as §1

[8] = system: HPC non-malignant cells; assay: MTT cytotoxicity against human pulp cell (HPC); assay type: cell-based; details: non-malignant oral cells, 48 h
Procedure: as §1

[9] = system: HGF, HPLF, and HPC non-malignant cells; assay: Average over HGF, HPLF and HPC non-malignant oral cells; assay type: cell-based, human; details: average of HGF
Procedure: as §1

[10] = system: CRL1790 non-malignant colon cells; assay: Cytotoxicity against CRL1790 non-malignant colon cells; assay type: cell-based; details: Homo sapiens, 48 h
Procedure: (§2) The culture medium was supplemented with 10% heat-inactivated fetal bovine serum (FBS) and 1% penicillin–streptomycin antibiotics. The time of the bioassays was 48 h. The determinations were undertaken in triplicate on three different occasions.

[11] = system: HCT116 and HT29 colon cancer cells; assay: Average over HCT116 and HT29 colon cancer cells; assay type: cell-based, human
Procedure: as §2

[12] = MTT cytotoxicity against human gingival fibroblast (HGF); assay type: cell-based; details: human, human gingival fibroblasts (HGF), non-malignant oral cells
Procedure: as §1

[13] = MTT cytotoxicity against human periodontal ligament fibroblast (HPLF); assay type: cell-based; details: human, human periodontal ligament fibroblasts (HPLF), non-malignant oral cells
Procedure: as §1

[14] = MTT cytotoxicity against human pulp cell (HPC); assay type: cell-based; details: human, human pulp cells (HPC), non-malignant oral cells
Procedure: as §1

[15] = Average over HGF, HPLF and HPC non-malignant oral cells; assay type: cell-based, human; details: human, HPLF and HPC non-malignant oral cells (average), average of HGF
Procedure: as §1

[16] = system: CEM cells; assay: Differential DNA staining (DNS) cytotoxicity assay, CEM cells; assay type: cell-based; details: Homo sapiens, CCRF-CEM
Procedure: (§3) The method used for generating the data of human acute lymphocytic leukemia (CEM) and human acute promyelocytic leukemia (HL-60) cells in Table 4 has been described previously. In brief, the cells were cultured in media supplemented with 10% FBS and antibiotics. […] The CC50 values of the compounds listed in Table 4 were obtained by linear interpolation equations [28, 29].

[17] = system: HL-60 cells; assay: Differential DNA staining (DNS) cytotoxicity assay, HL-60 cells; assay type: cell-based; details: Homo sapiens
Procedure: as §3

[18] = system: Ca9-22 cells; assay: Cell cycle analysis in Ca9-22 cells (propidium iodide); assay type: cell-based, human; details: dose-response 0.625-10 μM, 24 h
Procedure: Apoptosis induction in Ca9-22 cells was evaluated by cell cycle analysis and Western blot analysis as described previously [25, 28] […] Briefly, for the cell cycle analysis, cells were treated for 24 h with the test samples. Cells were then fixed, digested with RNase A, stained with propidium iodide, filtered through Falcon® cell trainers (Corning Inc., Corning, NY, USA), and then subjected to cell sorting.

[19] = system: CEM cells; assay: Annexin V-FITC apoptosis assay in CEM cells; assay type: cell-based, human; details: CC50 and twice the CC50 concentrations, 24 h
Procedure: In order to discover if representative compounds induce apoptosis, the annexin V-FITC assay was used. In brief, CEM cells were treated with various compounds for 24 h. The cells were collected and stained with propidium iodide and annexin V-FITC.

[20] = system: CEM cells; assay: ROS production in CEM cells (carboxy-H2DCFDA, flow cytometry); assay type: cell-based, human; details: CC50 and twice the CC50 concentrations
Procedure: (§4) Apoptosis induction in Ca9-22 cells was evaluated by cell cycle analysis and Western blot analysis as described previously (Figure 5). Briefly, for the cell cycle analysis, cells were treated for 24 h with the test samples. Cells were then fixed, digested with RNase A, stained with propidium iodide, filtered through Falcon® cell trainers (Corning Inc., Corning, NY, USA), and then subjected to cell sorting. For the Western blot, cell lysates (equivalent to 5 µg protein) were applied to SDS-polyacrylamide gel electrophoresis. A literature method was used to determine whether representative compounds led to increases in the production of ROS [29]. In brief, CEM cells were treated with the compounds overnight, then with 6-carboxy-2′,7′-dichlorodihydrofluorescein diacetate (carboxy-H2DCFDA) and the samples were processed using flow cytometry.

[21] = system: Ca9-22 cells; assay: Western blot for caspase 3 activation in Ca9-22 cells; assay type: cell-based, human; details: 3 μM, 24 h
Procedure: as §4

[22] = system: CEM cells; assay: Mitochondrial membrane potential in CEM cells (JC-1, flow cytometry); assay type: cell-based, human; details: 7 h
Procedure: The effect on the mitochondrial membrane potential in CEM cells was undertaken using a published method. In brief, the cells were incubated with different compounds for 7 h. The cells were then stained with the JC-1 dye, and the samples were examined by flow cytometry. The results are portrayed in Figure 6C.

In the case of `[NH2][Pt]([NH2])([Cl])[Cl]` [CDDP, cisplatin, reference compound], the CC50 [1] is reported as 212 µM, the “Ca9-22 SI” value [1] is reported as over 4.72 and the CC50 [2] is reported as 204 µM. The “HSC-2 SI” value [2] was over 4.90, the CC50 [3] was 46.9 µM and the “HSC-3 SI” value [3] was over 21.3. For the same compound, the CC50 [4] was 60.4 µM, the “HSC-4 SI” value [4] was over 16.6 and the “Average SI” value [5] was over 11.1. The CC50 [5] was 131 µM, the CC50 [6] was over 1000 µM and the CC50 [7] was over 1000 µM. It also gave a CC50 [8] of over 1000 µM and a CC50 [9] of over 1000 µM.
For `CCN(CC)Cc1cc(C=C2CNCC(=Cc3ccc(OC)c(OC)c3)C2=O)ccc1O.Cl.Cl` [Compound 2b, 3-(3-Diethylaminomethyl-4-hydroxybenzylidene)-5-(3,4-dimethoxybenzylidene)-4-piperidone dihydrochloride], the IC50 [10] was 15.2 ± 0.15 µM, the IC50 ([11]; Homo sapiens, average of HCT116 and HT29, unit printed only for the single cell-line columns) was 0.25 µM and the “Average SI” value ([11]; average of SI for HCT116 and HT29) was 64.2. The “PSE (potency-selectivity expression)” value ([11]; reciprocal of average IC50 x average SI x 100, colon cells) was 25,680, the CC50 ([1]; Homo sapiens, Ca9-22) was 0.65 µM and the “Ca9-22 SI” value [1] was 10.8. For the same compound, the CC50 ([2]; Homo sapiens, HSC-2) was 1.01 µM, the “HSC-2 SI” value [2] was 6.96 and the CC50 ([3]; Homo sapiens, HSC-3) was 0.76 µM. The “HSC-3 SI” value [3] was 9.25, the CC50 ([4]; Homo sapiens, HSC-4) was 1.16 µM and the “HSC-4 SI” value [4] was 6.06. The CC50 ([5]; Homo sapiens) was under 1 µM, the “Average SI” value [5] was 8.27 and the CC50 [5] was 0.9 µM. It also gave a CC50 at 48 h [12] of 13.3 µM, a CC50 at 48 h [13] of 5.5 µM and a CC50 at 48 h [14] of 2.3 µM. It also gave a CC50 at 48 h [15] of 7.03 µM, a CC50 ([16]; 24 h, read-out: CC50 CEM Cells 24 h) of 0.63 ± 0.08 µM and a CC50 ([16]; 48 h, read-out: CC50 CEM Cells 48 h) of 0.82 ± 0.03 µM. For the same compound, the CC50 ([17]; HL-60, 24 h, read-out: CC50 HL-60 Cells 24 h) was 7.75 ± 0.26 µM, the CC50 ([17]; HL-60, 48 h, read-out: CC50 HL-60 Cells 48 h) was 4.82 ± 0.91 µM and the “optimal concentration for the subG1 population” value [18] was 2.5 µM. The apoptotic cells [19] was “approximately 30%”, the ROS generation [20] was “generate ROS” and the “caspase 3 activation (cleavage of PARP and procaspase)” value [21] was “induced”. For the same compound, the “depolarization of the mitochondrial membrane potential” value [22] was “induced”.

Reference: paper PMC9572513, “Novel Unsymmetric 3,5-Bis(benzylidene)-4-piperidones That Display Tumor-Selective Toxicity” (Molecules, 2022)
